Target: T1, Vibrio fischeri luciferase (VfLuc) (Aliivibrio fischeri, UniProt P19907)
T1 construct: gene luxA; commercial Vibrio fischeri luciferase (Sigma-Aldrich L8507), with FMN reductases; with luciferase beta subunit (LuxB)
T1 sequence (P19907 1-354): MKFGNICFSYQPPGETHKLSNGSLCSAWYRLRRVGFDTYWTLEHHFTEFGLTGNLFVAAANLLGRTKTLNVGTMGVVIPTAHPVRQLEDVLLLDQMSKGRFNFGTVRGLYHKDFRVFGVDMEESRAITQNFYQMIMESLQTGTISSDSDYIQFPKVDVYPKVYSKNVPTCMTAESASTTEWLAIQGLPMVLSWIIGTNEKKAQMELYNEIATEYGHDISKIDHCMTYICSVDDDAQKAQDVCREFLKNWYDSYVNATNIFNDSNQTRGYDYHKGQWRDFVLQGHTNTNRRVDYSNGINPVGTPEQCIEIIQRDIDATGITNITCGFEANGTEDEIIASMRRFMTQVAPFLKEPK
T1 sequence (P19908 1-326 partner): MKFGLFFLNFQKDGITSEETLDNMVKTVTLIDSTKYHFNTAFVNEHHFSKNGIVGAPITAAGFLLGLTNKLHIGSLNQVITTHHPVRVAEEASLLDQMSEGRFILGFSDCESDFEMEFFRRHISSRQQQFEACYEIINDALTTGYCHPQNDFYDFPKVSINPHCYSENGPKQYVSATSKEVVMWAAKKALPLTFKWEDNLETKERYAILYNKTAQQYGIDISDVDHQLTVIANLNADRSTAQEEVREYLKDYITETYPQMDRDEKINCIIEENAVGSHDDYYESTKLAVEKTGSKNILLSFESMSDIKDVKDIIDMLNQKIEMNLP
Test: luminescence enzyme assay, coupled with FMN reductase, 12-point titration
Format: biochemical

IC50: 191 µM
SMILES: COC(=O)/C=C/OC1c2ccccc2-c2ccccc21 [SAM461, (E)-Methyl 3-((9H-fluoren-9-yl)oxy)acrylate]

From paper PMC6236115, “The 9H-Fluoren Vinyl Ether Derivative SAM461 Inhibits Bacterial Luciferase Activity and Protects Artemia franciscana From Luminescent Vibriosis” (Frontiers in Cellular and Infection Microbiology, 2018)
